From patent publication US20260232827A1, “ANTIBODY-DRUG CONJUGATES TARGETING NAPI2B AND METHODS OF USE” (Zymeworks BC Inc., priority 2023, published 2026)

Columns and labels:
Test in all cases: Binding region mapping, flow cytometry on transfected HEK293-6e cells
Conditions in all cases: 24 hours at 4° C.
[1] = system: Construct 5 (chimeric human NaPi2b, region 304-348)
Description: Following incubation and washing, fluorescence was detected by flow cytometry on a BD LSRFortessa™ Cell Analyzer (BD Biosciences, Franklin Lake, NJ) with 1,000 minimum events collected per well.

[2] = biological target: T1, Construct 7 (human NaPi2b deletion, region 317-326) (Homo sapiens, UniProt O95436, DEL317-326)
T1 construct: host or cells: HEK293-6e
T1 sequence (O95436 with tags, fused parts or gaps DEL317-326): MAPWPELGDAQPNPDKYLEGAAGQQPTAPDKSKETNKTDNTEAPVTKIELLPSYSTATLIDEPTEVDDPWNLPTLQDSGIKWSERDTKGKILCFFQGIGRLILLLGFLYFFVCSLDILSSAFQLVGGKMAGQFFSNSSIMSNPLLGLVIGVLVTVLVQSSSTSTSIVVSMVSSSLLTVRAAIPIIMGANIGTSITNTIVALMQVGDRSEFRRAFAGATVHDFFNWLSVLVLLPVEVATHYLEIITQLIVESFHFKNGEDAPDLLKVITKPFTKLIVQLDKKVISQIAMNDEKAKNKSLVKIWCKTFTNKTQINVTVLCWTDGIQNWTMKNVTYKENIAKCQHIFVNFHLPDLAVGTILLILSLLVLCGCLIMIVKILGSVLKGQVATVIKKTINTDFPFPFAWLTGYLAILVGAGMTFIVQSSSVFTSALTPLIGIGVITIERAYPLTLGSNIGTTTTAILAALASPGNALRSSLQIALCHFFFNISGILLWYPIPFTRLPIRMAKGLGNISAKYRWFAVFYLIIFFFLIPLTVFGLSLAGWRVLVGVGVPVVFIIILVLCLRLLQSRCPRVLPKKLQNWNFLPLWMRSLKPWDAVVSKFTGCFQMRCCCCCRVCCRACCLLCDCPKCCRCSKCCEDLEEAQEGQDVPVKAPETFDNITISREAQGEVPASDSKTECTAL
Description: (§1) NaPi2b constructs containing deletions in the main extracellular loop of human NaPi2b, as well as chimeric NaPi2b/NaPi2c constructs concerning this main loop, were generated.
(§2) As a complementary strategy, two additional constructs were designed in which the relevant region of the main loop was deleted such as to mimic NaPi2c/NaPi2a main extracellular loop (Constructs 6-7 in Table 52.1). Clones were generated at GenScript Biotech (Piscataway, NJ).
(§3) Constructs were expressed in HEK293-6e cells as follows. Cells were maintained under standard culture conditions (37° C./5% CO2) with shaking at 110 rpm for suspension and cultured in FreeStyle™ 293 Expression Medium (Thermo Fisher Scientific, Waltham, MA) supplemented with 1% fetal bovine serum (Thermo Fisher Scientific, Waltham, MA) and 1× Penicillin-Streptomycin (Thermo Fisher Scientific, Waltham, MA). Cells were transfected with clones expressing the constructs listed in Table 52.1, at 1 μg of DNA per 1 million cells, using 293Fectin™ Transfection Reagent (Thermo Fisher Scientific, Waltham, MA) and Opti-MEM™ I Reduced Serum Medium (Thermo Fisher Scientific, Waltham, MA), and incubated for 24 hours under standard culture conditions (37° C./5% CO2/110 rpm). Following transfection, cells were seeded at 50,000 cells/well in conical-bottom 96-well plates and treated with a serial dilution of test antibody for 24 hours at 4° C. to prevent internalization. Cells were treated with final concentrations of all humanized antibodies of 200, 20, or 2 nM. Cells were treated with final concentrations of the reference anti-NaPi2a rabbit antibody of 50, 5, or 0.5 nM. […] Following incubation and washing, fluorescence was detected by flow cytometry on a BD LSRFortessa™ Cell Analyzer (BD Biosciences, Franklin Lake, NJ) with 1,000 minimum events collected per well. […] Background-subtracted AF647 Mean Fluorescence Intensity (MFI) values were calculated by subtracting the average MFI of three technical replicates of unstained (no primary antibody) cells.

[3] = system: Construct 1 (chimeric human NaPi2b, region 239-259)
Description: as §1, §2, §3

[4] = system: Construct 2 (chimeric human NaPi2b, region 280-301)
Description: as §1, §2, §3

[5] = biological target: T2, Construct 6 (human NaPi2b deletion, region 317-333) (Homo sapiens, UniProt O95436, DEL317-333)
T2 construct: host or cells: HEK293-6e
T2 sequence (O95436 with tags, fused parts or gaps DEL317-333): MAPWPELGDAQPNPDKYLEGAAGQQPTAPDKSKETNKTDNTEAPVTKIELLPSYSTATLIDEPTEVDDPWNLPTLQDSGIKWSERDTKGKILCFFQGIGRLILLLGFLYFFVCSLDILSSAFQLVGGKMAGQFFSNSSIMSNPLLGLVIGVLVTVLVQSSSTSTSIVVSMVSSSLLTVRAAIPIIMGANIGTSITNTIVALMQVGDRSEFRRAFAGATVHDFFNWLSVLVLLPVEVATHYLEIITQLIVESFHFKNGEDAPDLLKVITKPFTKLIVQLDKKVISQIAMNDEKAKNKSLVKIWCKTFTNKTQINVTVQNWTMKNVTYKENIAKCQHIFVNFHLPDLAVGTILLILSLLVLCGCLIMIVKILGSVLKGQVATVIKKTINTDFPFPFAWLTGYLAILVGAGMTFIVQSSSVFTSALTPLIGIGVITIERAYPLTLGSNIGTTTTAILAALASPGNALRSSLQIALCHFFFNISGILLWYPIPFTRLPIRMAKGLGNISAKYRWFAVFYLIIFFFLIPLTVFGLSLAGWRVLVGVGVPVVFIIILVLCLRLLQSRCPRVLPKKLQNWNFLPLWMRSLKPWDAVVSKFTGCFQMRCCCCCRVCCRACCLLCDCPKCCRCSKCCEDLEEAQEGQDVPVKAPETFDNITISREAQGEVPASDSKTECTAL
Description: as §1, §2, §3

[6] = system: Construct 3 (chimeric human NaPi2b, region 304-321)
Description: as §1, §2, §3

[7] = system: Construct 4 (chimeric human NaPi2b, region 341-358)
Description: as §1, §2, §3

Substance: palivizumab [palivizumab (v21995)]
- Background-Subtracted AF647 Mean Fluorescence Intensity ([1]; antibody 2.0 nM): -2
- Background-Subtracted AF647 Mean Fluorescence Intensity ([1]; antibody 20.0 nM): 123
- Background-Subtracted AF647 Mean Fluorescence Intensity ([1]; antibody 200.0 nM): 40
- Background-Subtracted AF647 Mean Fluorescence Intensity ([2]; antibody 2.0 nM): -34
- Background-Subtracted AF647 Mean Fluorescence Intensity ([2]; antibody 20.0 nM): -85
- Background-Subtracted AF647 Mean Fluorescence Intensity ([2]; antibody 200.0 nM): -97
- Background-Subtracted AF647 Mean Fluorescence Intensity ([3]; antibody 2.0 nM): -30
- Background-Subtracted AF647 Mean Fluorescence Intensity ([3]; antibody 20.0 nM): -27
- Background-Subtracted AF647 Mean Fluorescence Intensity ([3]; antibody 200.0 nM): 12
- Background-Subtracted AF647 Mean Fluorescence Intensity ([4]; antibody 2.0 nM): -69
- Background-Subtracted AF647 Mean Fluorescence Intensity ([4]; antibody 20.0 nM): -64
- Background-Subtracted AF647 Mean Fluorescence Intensity ([4]; antibody 200.0 nM): -30
- Background-Subtracted AF647 Mean Fluorescence Intensity ([5]; antibody 2.0 nM): 11
- Background-Subtracted AF647 Mean Fluorescence Intensity ([5]; antibody 20.0 nM): 1
- Background-Subtracted AF647 Mean Fluorescence Intensity ([5]; antibody 200.0 nM): 2
- Background-Subtracted AF647 Mean Fluorescence Intensity ([6]; antibody 2.0 nM): 19
- Background-Subtracted AF647 Mean Fluorescence Intensity ([6]; antibody 20.0 nM): 39
- Background-Subtracted AF647 Mean Fluorescence Intensity ([6]; antibody 200.0 nM): -5
- Background-Subtracted AF647 Mean Fluorescence Intensity ([7]; antibody 2.0 nM): 1
- Background-Subtracted AF647 Mean Fluorescence Intensity ([7]; antibody 20.0 nM): 22
- Background-Subtracted AF647 Mean Fluorescence Intensity ([7]; antibody 200.0 nM): 12
